Test results as given in patent US10946012B2, “Methods for inducing tumor regression, inhibiting tumor growth, and inducing apoptosis in breast tumors with geranylgeranyltransferase I inhibitors” (H. Lee Moffitt Cancer Center and Research Institute, Inc., priority 2009, dated 2021).

Key:
[1] = tested on: MDA-MB-231, SK-Br3 and BT-474 breast cancer cells; test: Effects in other human breast cancer cell lines; format: cell-based; conditions: 50 μM; all three cell lines
Protocol: (§1) Human MDA-MB-468 and MDA-MB-231 breast cancer cells and murine NIH 3T3 cells were obtained from the ATCC and cultured in DMEM medium. Human SK-Br3 and BT-474 breast cancer cells (ATCC) were cultured in McCoy's 5a medium and Hybri-Care medium, respectively. Mouse embryonic fibroblast (MEF) cells from p27 wild-type and p27 null mice were grown in DMEM. All media were supplemented with 10% fetal calf serum, 10 units/ml penicillin, and 10 μg/ml streptomycin. Subconfluent cells were treated with different concentrations of GGTI, FTI or DMSO vehicle for specific time periods. After treatment, cells were harvested by trypsinization.
To prepare whole cell lysates, cells were trypsinized, washed with phosphate buffered saline (PBS) twice, and lysed in 30 mM Hepes, pH 7.5, 10 mM NaCl, 5 mM MgCl2, 25 mM NaF, 1 mM EGTA, 1% Triton-X-100, 10% glycerol, protease inhibitor cocktail, 2 mM PMSF, 2 mM Na3VO4, and 6.4 mg/ml p-nitrophenylphosphate. […] The protein concentration was determined by the Bradford assay. […] Select bands were quantified using AlphaEaseFC densitometry software (AlphaInnotech, San Leandro, Calif.).
Adherent cells were harvested by trypsinization and diluted with 0.4% Trypan Blue dye and counted on a hemacytometer. Cells excluding the dye were scored as live cells, whereas cells absorbing the dye were scored as dead cells. […]

[2] = tested on: MDA-MB-468 breast cancer cells; test: Cell cycle analysis in MDA-MB-468 cells; format: cell-based, human; conditions: 50 μM, control 51%
Protocol: Cell cycle analysis based on DNA content was performed as described previously. Liang, J., et al., PKB/Akt phosphorylates p27, impairs nuclear import of p27 and opposes p27-mediated G1 arrest, Nat Med 8:1153-60 (2002). At each time point, cells were harvested, counted, and washed twice with PBS. Cells (2-3×10^6) were suspended in 0.5 ml PBS, fixed in 5 ml of 70% ethanol overnight at −20° C., centrifuged, re-suspended again in 1 ml of propidium iodide staining solution (50 μg/ml propidium iodide, 100 units/ml RNase A and 1 mg/ml of glucose in PBS), and incubated at room temperature for 30 min. The cells were then analyzed for cell cycle distribution using FACScan (BD Biosciences) and ModFit LT cell cycle analysis software (Verity Software, Topsham, Me.).

p27 = test: Western blot / immunoprecipitation of p27 and prenylated proteins in MDA-MB-468 cells; format: cell-based, human; set-up: Rap1 geranylgeranylation / HDJ-2 farnesylation / processing / p27 protein levels: dose or concentration left out as unconfirmed
Protocol: MDA-MB-468 cells were lysed using CelLytic™ M Cell Lysis Reagent (Sigma-Aldrich, St. Louis, Mo.) containing protease inhibitor cocktail, 2 mM phenylmethylsulfonylfluoride (PMSF), 2 mM Na3VO4, and 6.4 mg/ml p-nitrophenylphosphate (Sigma-Aldrich). Lysates were incubated overnight with p27 antibody (BD Biosciences, San Jose, Calif.) at 4° C. while rocking; after incubation protein A anti-IgG agarose beads were added and incubated for 2 h at 4° C., then washed four times with an excess of lysis buffer. Samples were then boiled at 100° C. for 10 min in 2×SDS-sample buffer and analyzed by Western blotting as described below.
To prepare whole cell lysates, cells were trypsinized, washed with phosphate buffered saline (PBS) twice, and lysed in 30 mM Hepes, pH 7.5, 10 mM NaCl, 5 mM MgCl2, 25 mM NaF, 1 mM EGTA, 1% Triton-X-100, 10% glycerol, protease inhibitor cocktail, 2 mM PMSF, 2 mM Na3VO4, and 6.4 mg/ml p-nitrophenylphosphate. Lysates were cleared by centrifugation at 12,000×g for 15 min, and the supernatants were collected as whole cell extracts. The protein concentration was determined by the Bradford assay. Proteins were separated by SDS-PAGE and transferred to nitrocellulose membranes, which were then blotted with antibodies specific for whole Rap1 or unprenylated Rap1, Ras, the C-terminal region of pRb, Akt (Santa Cruz Biotechnology, Santa Cruz, Calif.), phospho-Akt(S473) (Cell Signaling, Danvers, Mass.), p27 (BD Biosciences, San Jose, Calif.), phospho-p27(T187) (Invitrogen, Carlsbad, Calif.), HDJ-2 (Lab Vision Corporation, Fremont, Calif.), phosphotyrosine (Millipore, Billerica, Mass.), and β-actin (Sigma-Aldrich, St. Louis, Mo.). Select bands were quantified using AlphaEaseFC densitometry software (AlphaInnotech, San Leandro, Calif.).

p27 wild-type MEFs = test: Trypan Blue exclusion assay in p27 wild-type MEFs; format: cell-based, mouse; conditions: 50 μM, 72 h, p27 wt MEFs
Protocol: as §1
Adherent cells were harvested by trypsinization and diluted with 0.4% Trypan Blue dye and counted on a hemacytometer. Cells excluding the dye were scored as live cells, whereas cells absorbing the dye were scored as dead cells. Cell proliferation was determined by dividing the number of live cells in the treated sample by the number of live cells in the control, and the degree of cell death was expressed as percentage of dead cells of the total cell number.

## COC(=O)[C@H](CC(C)C)NC(=O)N1CCN(Cc2nc[nH]c2C)C(=O)[C@@H]1Cc1ccccc1 [GGTI-2417]
[1]
  cell proliferation: inhibited cell proliferation
  p27 protein levels: induced p27 protein levels
[2]
  fraction of cells in G0/G1: 78%
p27; 50 μM, MDA-MB-468
  increase of p27 Tyr phosphorylation: 3.5 fold
  increase of p27 amounts (immunoprecipitated p27): 11.9 fold
p27; MDA-MB-468, 48 h
  HDJ-2 farnesylation / processing: not the farnesylation of HDJ-2
  Rap1 geranylgeranylation: inhibited the geranylgeranylation of Rap1
  p27 protein levels: increased p27 protein levels in a time-dependent manner
p27 wild-type MEFs
  inhibition of proliferation: 89.0±3.1%
p27 wild-type MEFs; vehicle 22.4±7.2%
  cell death: 53.4±7.0%
